# In ChEMBL document CHEMBL3885881, “DrugMatrix”:
# Species: Rattus norvegicus
# Test: DrugMatrix - Regimen: Daily Repeat
# Assay type: toxicity, organism-based, Sprague-Dawley
# Set-up: regimen Daily Repeat, gender Male, age 6-8 weeks
# Conditions: in vivo, po, 0 mg/kg, route oral GAVAGE, dose level Control, vehicle .5 % CMC; for ABSOLUTE BASOPHIL / ABSOLUTE EOSINOPHIL / ABSOLUTE LYMPHOCYTE / ABSOLUTE MONOCYTE / ABSOLUTE SEGMENTED NEUTROPHIL / BASOPHIL / EOSINOPHIL / ERYTHROCYTE COUNT / HEMATOCRIT / HEMOGLOBIN / LEUKOCYTE COUNT / LYMPHOCYTE / MEAN CORPUSCULAR HEMOGLOBIN / MEAN CORPUSCULAR HEMOGLOBIN CONCENTRATION / MEAN CORPUSCULAR VOLUME / MONOCYTE / NEUTROPHIL / PLATELET COUNT: tissue Blood; for ALANINE AMINOTRANSFERASE / ALBUMIN / ALKALINE PHOSPHATASE / ASPARTATE AMINOTRANSFERASE / BLOOD UREA NITROGEN / CHLORIDE / CHOLESTEROL / CREATINE PHOSPHOKINASE / CREATININE / GLUCOSE / LACTATE DEHYDROGENASE / LIPASE / PHOSPHORUS / POTASSIUM / SODIUM / TOTAL BILIRUBIN / TOTAL PROTEIN / URIC ACID: tissue Plasma
compound,measurement,setting,value
O=c1cc(-c2ccccc2)oc2c1ccc1ccccc12 [ALPHA-NAPHTHOFLAVONE],ABSOLUTE BASOPHIL,"120 h, time 5 day",92 cells/µL
same,ABSOLUTE EOSINOPHIL,"120 h, time 5 day",52 cells/µL
same,ABSOLUTE LYMPHOCYTE,"120 h, time 5 day",6560 cells/µL
same,ABSOLUTE MONOCYTE,"120 h, time 5 day",160 cells/µL
same,ABSOLUTE SEGMENTED NEUTROPHIL,"120 h, time 5 day",1130 cells/µL
same,BASOPHIL,"120 h, time 5 day",1.14%
same,EOSINOPHIL,"120 h, time 5 day",0.68%
same,ERYTHROCYTE COUNT,"120 h, time 5 day",7.51 x10E6/uL
same,HEMATOCRIT,"120 h, time 5 day",46.04%
same,HEMOGLOBIN,"120 h, time 5 day",15.62 G/DL
same,LEUKOCYTE COUNT,"120 h, time 5 day",8.03 x10E3/uL
same,LYMPHOCYTE,"120 h, time 5 day",81.54%
same,MEAN CORPUSCULAR HEMOGLOBIN,"120 h, time 5 day",20.84 pg
same,MEAN CORPUSCULAR HEMOGLOBIN CONCENTRATION,"120 h, time 5 day",33.94 G/DL
same,MEAN CORPUSCULAR VOLUME,"120 h, time 5 day",61.42 fL
same,MONOCYTE,"120 h, time 5 day",2%
same,NEUTROPHIL,"120 h, time 5 day",14.24%
same,PLATELET COUNT,"120 h, time 5 day",1427.2 x10E3/uL
same,ALANINE AMINOTRANSFERASE,"120 h, time 5 day",35.6 u/L
same,ALBUMIN,"120 h, time 5 day",3.64 G/DL
same,ALKALINE PHOSPHATASE,"120 h, time 5 day",233 u/L
same,ASPARTATE AMINOTRANSFERASE,"120 h, time 5 day",81 u/L
same,BLOOD UREA NITROGEN,"120 h, time 5 day",12 mg/dL
same,CHLORIDE,"120 h, time 5 day",109.4 MEQ/L
same,CHOLESTEROL,"120 h, time 5 day",47.6 mg/dL
same,CREATINE PHOSPHOKINASE,"120 h, time 5 day",183.2 u/L
same,CREATININE,"120 h, time 5 day",0.4 mg/dL
same,GLUCOSE,"120 h, time 5 day",134.6 mg/dL
same,LACTATE DEHYDROGENASE,"120 h, time 5 day",89.4 u/L
same,LIPASE,"120 h, time 5 day",17.2 u/L
same,PHOSPHORUS,"120 h, time 5 day",13.02 mg/dL
same,POTASSIUM,"120 h, time 5 day",7 MEQ/L
same,SODIUM,"120 h, time 5 day",149.6 MEQ/L
same,TOTAL BILIRUBIN,"120 h, time 5 day",0.18 mg/dL
same,TOTAL PROTEIN,"120 h, time 5 day",6.06 G/DL
same,URIC ACID,"120 h, time 5 day",1.04 mg/dL
same,ABSOLUTE BASOPHIL,"2184 h, time 91 day",130 cells/µL
same,ABSOLUTE EOSINOPHIL,"2184 h, time 91 day",70 cells/µL
same,ABSOLUTE LYMPHOCYTE,"2184 h, time 91 day",8670 cells/µL
same,ABSOLUTE MONOCYTE,"2184 h, time 91 day",160 cells/µL
same,ABSOLUTE SEGMENTED NEUTROPHIL,"2184 h, time 91 day",1530 cells/µL
same,BASOPHIL,"2184 h, time 91 day",1.13%
same,EOSINOPHIL,"2184 h, time 91 day",0.66%
same,ERYTHROCYTE COUNT,"2184 h, time 91 day",9.13 x10E6/uL
same,HEMATOCRIT,"2184 h, time 91 day",48.47%
same,HEMOGLOBIN,"2184 h, time 91 day",16.56 G/DL
same,LEUKOCYTE COUNT,"2184 h, time 91 day",10.5 x10E3/uL
same,LYMPHOCYTE,"2184 h, time 91 day",81.63%
same,MEAN CORPUSCULAR HEMOGLOBIN,"2184 h, time 91 day",18.16 pg
same,MEAN CORPUSCULAR HEMOGLOBIN CONCENTRATION,"2184 h, time 91 day",34.14 G/DL
same,MEAN CORPUSCULAR VOLUME,"2184 h, time 91 day",53.14 fL
same,MONOCYTE,"2184 h, time 91 day",1.53%
same,NEUTROPHIL,"2184 h, time 91 day",14.71%
same,PLATELET COUNT,"2184 h, time 91 day",1280.22 x10E3/uL
same,ALANINE AMINOTRANSFERASE,"2184 h, time 91 day",28.89 u/L
same,ALBUMIN,"2184 h, time 91 day",3.69 G/DL
same,ALKALINE PHOSPHATASE,"2184 h, time 91 day",101.11 u/L
same,ASPARTATE AMINOTRANSFERASE,"2184 h, time 91 day",70.67 u/L
same,BLOOD UREA NITROGEN,"2184 h, time 91 day",16.78 mg/dL
same,CHLORIDE,"2184 h, time 91 day",104.56 MEQ/L
same,CHOLESTEROL,"2184 h, time 91 day",58.78 mg/dL
same,CREATINE PHOSPHOKINASE,"2184 h, time 91 day",91.22 u/L
same,CREATININE,"2184 h, time 91 day",0.61 mg/dL
same,GLUCOSE,"2184 h, time 91 day",142.33 mg/dL
same,LACTATE DEHYDROGENASE,"2184 h, time 91 day",81.67 u/L
same,LIPASE,"2184 h, time 91 day",13 u/L
same,PHOSPHORUS,"2184 h, time 91 day",7.54 mg/dL
same,POTASSIUM,"2184 h, time 91 day",6.27 MEQ/L
same,SODIUM,"2184 h, time 91 day",149.89 MEQ/L
same,TOTAL BILIRUBIN,"2184 h, time 91 day",0.19 mg/dL
same,TOTAL PROTEIN,"2184 h, time 91 day",7.12 G/DL
same,URIC ACID,"2184 h, time 91 day",0.97 mg/dL
same,ABSOLUTE BASOPHIL,"[…], time 28 day",150 cells/µL
same,ABSOLUTE EOSINOPHIL,"[…], time 28 day",54 cells/µL
same,ABSOLUTE LYMPHOCYTE,"[…], time 28 day",8890 cells/µL
same,ABSOLUTE MONOCYTE,"[…], time 28 day",190 cells/µL
same,ABSOLUTE SEGMENTED NEUTROPHIL,"[…], time 28 day",2250 cells/µL
same,BASOPHIL,"[…], time 28 day",1.26%
same,EOSINOPHIL,"[…], time 28 day",0.46%
same,ERYTHROCYTE COUNT,"[…], time 28 day",8.34 x10E6/uL
same,HEMATOCRIT,"[…], time 28 day",48.66%
same,HEMOGLOBIN,"[…], time 28 day",16.04 G/DL
same,LEUKOCYTE COUNT,"[…], time 28 day",11.58 x10E3/uL
same,LYMPHOCYTE,"[…], time 28 day",76.74%
same,MEAN CORPUSCULAR HEMOGLOBIN,"[…], time 28 day",19.2 pg
same,MEAN CORPUSCULAR HEMOGLOBIN CONCENTRATION,"[…], time 28 day",32.92 G/DL
same,MEAN CORPUSCULAR VOLUME,"[…], time 28 day",58.32 fL
same,MONOCYTE,"[…], time 28 day",1.76%
same,NEUTROPHIL,"[…], time 28 day",19.44%
same,PLATELET COUNT,"[…], time 28 day",1282.6 x10E3/uL
same,ALANINE AMINOTRANSFERASE,"[…], time 28 day",27 u/L
same,ALBUMIN,"[…], time 28 day",3.68 G/DL
same,ALKALINE PHOSPHATASE,"[…], time 28 day",146.2 u/L
same,ASPARTATE AMINOTRANSFERASE,"[…], time 28 day",66.6 u/L
same,BLOOD UREA NITROGEN,"[…], time 28 day",12.4 mg/dL
same,CHLORIDE,"[…], time 28 day",104.6 MEQ/L
same,CHOLESTEROL,"[…], time 28 day",59.6 mg/dL
same,CREATINE PHOSPHOKINASE,"[…], time 28 day",121.8 u/L
same,CREATININE,"[…], time 28 day",0.6 mg/dL
same,GLUCOSE,"[…], time 28 day",143 mg/dL
same,LACTATE DEHYDROGENASE,"[…], time 28 day",87.8 u/L
same,LIPASE,"[…], time 28 day",17.4 u/L
same,PHOSPHORUS,"[…], time 28 day",8.68 mg/dL
same,POTASSIUM,"[…], time 28 day",6.02 MEQ/L
same,SODIUM,"[…], time 28 day",152.8 MEQ/L
same,TOTAL BILIRUBIN,"[…], time 28 day",0.26 mg/dL
same,TOTAL PROTEIN,"[…], time 28 day",6.92 G/DL
same,URIC ACID,"[…], time 28 day",0.52 mg/dL
